Results as given in PMC8718758, “Using Unnatural Protein Fusions to Engineer a Coenzyme Self-Sufficiency System for D-Phenyllactic Acid Biosynthesis in Escherichia coli” (Frontiers in Bioengineering and Biotechnology, 2021).

Target: T1, LfD-LDH (Limosilactobacillus fermentum, UniProt A0ABF7R291)
T1 construct: gene LAF_0632; gene cloned BamHI/XhoI in pET28a, expressed in E. coli BL21(DE3) (strain CP101); gene primers only in supplement
Assay: enzymatic conversion of phenylpyruvate to D-phenyllactic acid
Type: biochemical
Settings: co-substrate phenylpyruvate, pH 7, 35 °C; paper says only D-LDH here, LfD-LDH inferred; enzyme purity not described

T1 sequence (A0ABF7R291 1-332): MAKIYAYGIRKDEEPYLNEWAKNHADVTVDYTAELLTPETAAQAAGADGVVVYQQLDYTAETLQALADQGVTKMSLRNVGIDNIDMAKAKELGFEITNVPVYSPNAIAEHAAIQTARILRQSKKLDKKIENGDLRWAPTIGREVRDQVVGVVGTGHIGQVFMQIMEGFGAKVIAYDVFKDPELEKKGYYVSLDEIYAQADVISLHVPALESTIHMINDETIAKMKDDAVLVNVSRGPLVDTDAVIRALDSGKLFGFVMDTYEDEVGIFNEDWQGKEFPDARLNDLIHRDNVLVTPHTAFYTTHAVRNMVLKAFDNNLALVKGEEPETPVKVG

Question: With `NC(=O)C1=CN([C@@H]2O[C@H](COP(=O)(O)OP(=O)(O)OC[C@H]3O[C@@H](n4cnc5c(N)ncnc54)[C@H](O)[C@@H]3O)[C@@H](O)[C@H]2O)C=CC1` [NADH] as the compound, how does the “enzymatic conversion of phenylpyruvate to D-phenyllactic acid” value read?
Answer: NADH-dependent D-LDH must rely on NADH to catalyze the conversion of PPA to D-PLA
